Experiments:
[1] = Binding affinity for dopamine D3 receptor
[2] = Binding affinity for dopamine D2 receptor to that of dopamine D4 receptor
D(4) dopamine receptor = molecular target: T1, D(4) dopamine receptor (Homo sapiens, UniProt P21917); test: Binding affinity for dopamine D4 receptor
T1 sequence (P21917 whole entry): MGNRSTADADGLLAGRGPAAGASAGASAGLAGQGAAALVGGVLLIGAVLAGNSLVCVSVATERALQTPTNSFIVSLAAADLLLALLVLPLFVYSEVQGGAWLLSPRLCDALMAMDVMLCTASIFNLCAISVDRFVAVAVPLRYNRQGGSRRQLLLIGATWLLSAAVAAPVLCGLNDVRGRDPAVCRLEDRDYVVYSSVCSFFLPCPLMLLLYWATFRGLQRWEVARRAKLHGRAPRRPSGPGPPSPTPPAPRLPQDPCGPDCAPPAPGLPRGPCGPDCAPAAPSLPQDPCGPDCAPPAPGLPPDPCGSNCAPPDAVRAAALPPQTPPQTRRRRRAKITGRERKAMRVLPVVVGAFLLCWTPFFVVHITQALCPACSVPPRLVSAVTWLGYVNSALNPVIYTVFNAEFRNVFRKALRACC

D(2) dopamine receptor = D(2) dopamine receptor (Homo sapiens, UniProt P14416)
Chain of D(2) dopamine receptor (P14416 whole entry): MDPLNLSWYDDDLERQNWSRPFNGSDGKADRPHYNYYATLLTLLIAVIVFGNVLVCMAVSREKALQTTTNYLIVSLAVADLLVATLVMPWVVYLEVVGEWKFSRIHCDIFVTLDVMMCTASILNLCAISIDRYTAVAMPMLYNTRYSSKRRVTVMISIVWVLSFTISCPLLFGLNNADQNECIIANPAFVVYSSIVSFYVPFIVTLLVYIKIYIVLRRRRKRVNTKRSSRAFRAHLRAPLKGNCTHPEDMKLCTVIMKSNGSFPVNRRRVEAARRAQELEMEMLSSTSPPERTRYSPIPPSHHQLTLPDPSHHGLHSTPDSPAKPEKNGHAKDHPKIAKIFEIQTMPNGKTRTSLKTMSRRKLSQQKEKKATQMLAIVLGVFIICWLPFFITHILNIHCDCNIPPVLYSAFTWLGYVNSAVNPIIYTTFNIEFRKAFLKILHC

SMILES	Ki [1] [µM]	Ratio [2]	Ki (D(4) dopamine receptor) [µM]	Ki (D(2) dopamine receptor) [µM]
O=C(CN1C2CCC1CC(O)(c1ccc(Cl)cc1)C2)c1ccc(F)cc1 (stereo not drawn)	> 10	–	–	–
O=C(CCCN1C2CCC1CC(c1ccccc1)C2)c1ccc(F)cc1 (stereo not drawn)	0.0514	0.7	0.177	–
O=C(CCCN1CCC(c2ccc(Cl)cc2)CC1)c1ccc(F)cc1	0.046	–	–	–
O=C(CCCN1C2CCC1CC(c1ccc(Cl)cc1)C2)c1ccc(F)cc1 (stereo not drawn)	0.222	0.6	0.345	0.19
O=C(CCCN1C2CCC1CC(O)(c1ccc(Cl)cc1)C2)c1ccc(F)cc1 (stereo not drawn)	–	0.03	–	–
O=C(CCCN1C2CCC1CC(O)(c1ccccc1)C2)c1ccc(F)cc1 (stereo not drawn)	0.0032	–	0.0191	–
O=C(CCCN1CCN(c2ccc(Cl)cc2)CC1)c1ccc(F)cc1	–	–	0.0175	–
